Counter-ions that a name gives are not always drawn.
How the values were obtained:
[1] = Acute toxicity test, oral; type: in vivo, ddY male mice; conditions: mouse, in vivo, ddY mice, 2 weeks observation
Experimental: With respect to the compounds 1 to 86 shown in Table 1 as test compounds, the acute toxicity was examined using ddY mice according to the following method.
In each group, six male ddY mice weighing 27 to 30 g were employed. The compounds 1 to 86 suspended in an aqueous solution of 0.5% sodium carboxymethylcellulose were administered orally in a volume of 0.1 ml/10 g body weight. […] The LD50 (mg/kg) values were estimated from the ratio of the number of dead mice to the number of mice used.

[2] = tested on: experimental amnesia in mice induced by cycloheximide; test: Anti-amnesic effect: passive avoidance task (step-through), cycloheximide-induced amnesia; type: in vivo, ddY male mice; conditions: for Step-through latency: mean of group; for responders at 3 mg/kg / responders at 1 mg/kg: Mus musculus, mice with latency > 100 seconds, read-out: Ratio of memory
Experimental: As experimental animals, Wistar male rats and ddY male mice were used for the tests after they were housed for a week under every 12 hours' dark-light cycle at room temperature of 24° to 26° C.
The effect on experimental amnesia in mice induced by cycloheximide was evaluated.
The experiment was carried out using an experimental apparatus of passive avoidance task for mice (made by Ohara-ika-sangyo K. K.) comprising a box divided into the two compartments of dark and light. That is, the dark compartment [a box having a reverse trapezoid cross section (height: 8 cm, base line: 5 cm, oblique line: 9.5 cm) and having the length of 14 cm] was shield from a light with a black plastic case and was floored with stainless grids for giving an electrical shock so that an electricity might be turned on a determined time after interception of a photobeam placed in the dark compartment. The light compartment made of transparent plastic (a box of the same shape as that of the dark compartment having the length of 16 cm, lightened from a location spaced 25 cm above by a 60 W electric lamp) was provided adjacent to the dark compartment. Between the two compartments, there was provided a circular entrance having the diameter of 3 cm with a guillotine door which could be opened and closed. By using the above-mentioned dark-light box, the experiment was carried out according to the following procedure.
A mouse (5 week-old) previously conditioned in the dark-light box was put in the light compartment and the guillotine door was opened. Three seconds after the mouse moved into the dark compartment and interrupted the photobeam, 0.3 mA electrical shock was given to limbs for 3 seconds from the floor grid (aquisition trial). Just after the mouse rushed into the light compartment, the door was shut and the […] in the light compartment was picked out to return to his home cage. After 24 hours, the mouse was placed again in the light compartment and the period from the opening of the guillotine door to the time the mouse completely entered the dark compartment was recorded maximally 300 seconds as a step-through latency (retention trial).
The amnesia was induced by subcutaneous injection of cycloheximide (120 mg/kg) dissolved in saline 10 minutes before the aquisition trial. As a control, the same amount of saline alone was administered. […]
A ratio of number of mice showing the step-through latency of more than 100 seconds in the group was defined as a ratio of memory for convenience's sake.
The step-through latency in Table 2 was the mean value for each treated group.

Row | SMILES | LD50 at 336 h [1] | Step-through latency ([2]; 3 mg/kg oral) | responders at 3 mg/kg ([2]; 3 mg/kg oral) | Step-through latency ([2]; 1 mg/kg oral) | responders at 1 mg/kg ([2]; 1 mg/kg oral)
1 | C(=C1CCN(CCOC2CCCCO2)C1)c1cccc(Oc2ccccc2)c1 (stereo not drawn) [Compound 70] | ≥ 500 mg/kg |  |  |  | 
2 | O=C(C=Cc1ccccc1)N1CCC(=Cc2cccc(Oc3ccccc3)c2)C1=O [Compound 44] | ≥ 500 mg/kg | 132 s | 38% |  | 
3 | COCCN1CCC(=Cc2cccc(Oc3ccccc3)c2)C1=O [Compound 23] | ≥ 500 mg/kg | 71 s | 50% |  | 
4 | O=C1C(=Cc2cccc(Oc3ccccc3)c2)CCN1CCOC1CCCCO1 (stereo not drawn) [Compound 24] | ≥ 500 mg/kg | 109 s | 38% |  | 
5 | CCN1CCC(Cc2cccc(Oc3ccccc3)c2)C1=O (stereo not drawn) [Compound 82] | ≥ 500 mg/kg | 102 s | 38% |  | 
6 | CN1CCC(=Cc2cccc(Oc3ccccc3)c2)C1=O [Compound 9] | ≥ 500 mg/kg | 151 s | 75% |  | 
7 | O=C1NCCC1=Cc1ccc(Oc2ccccc2)cc1 [Compound 2] | ≥ 500 mg/kg | 188 s | 75% |  | 
8 | CCCCCCN1CCC(=Cc2cccc(Oc3ccccc3)c2)C1=O [Compound 13] | ≥ 500 mg/kg | 132 s | 38% |  | 
9 | COC1CC(=Cc2cccc(Oc3ccccc3)c2)C(=O)N1 (stereo not drawn) [Compound 55] | ≥ 500 mg/kg | 80 s | 25% |  | 
10 | NC(=O)N1CCC(=Cc2cccc(Oc3ccccc3)c2)C1=O [Compound 30] | ≥ 500 mg/kg |  |  |  | 
11 | CNC(=O)CN1CCC(=Cc2cccc(Oc3ccccc3)c2)C1=O [Compound 34] | ≥ 500 mg/kg |  |  |  | 
12 | NCCN1CCC(=Cc2cccc(Oc3ccccc3)c2)C1=O [Compound 39] | ≥ 500 mg/kg |  |  |  | 
13 | C=CCN1CCC(=Cc2cccc(Oc3ccccc3)c2)C1 [Compound 69] | ≥ 500 mg/kg |  |  | 102 s | 50%
14 | CCN1CCC(Cc2cccc(Oc3ccccc3)c2)C1 (stereo not drawn) [Compound 83] | ≥ 500 mg/kg |  |  | 188 s | 100%
15 | CCC1NCCC1=Cc1cccc(Oc2ccccc2)c1 (stereo not drawn) [Compound 77] | ≥ 500 mg/kg |  |  |  | 
16 | CC1CNC(=O)C1=Cc1cccc(Oc2ccccc2)c1 (stereo not drawn) [Compound 60] | ≥ 500 mg/kg |  |  |  | 
17 | CN(C)CCN1CCC(=Cc2cccc(Oc3ccccc3)c2)C1=O [Compound 40] | ≥ 500 mg/kg |  |  | 116 s | 50%
18 | Cc1ccc(Oc2cccc(C=C3CCNC3=O)c2)cc1 [Compound 4] | ≥ 500 mg/kg |  |  |  | 
19 | O=C1C(=Cc2cccc(Oc3ccccc3)c2)CCN1C(=O)c1ccccc1 [Compound 42] | ≥ 500 mg/kg |  |  | 80 s | 25%
20 | O=C1C(=Cc2cccc(Oc3ccccc3)c2)CCN1CCc1ccccc1 [Compound 51] | ≥ 500 mg/kg |  |  |  | 
21 | CN(C)CCNC(=O)CN1CCC(=Cc2cccc(Oc3ccccc3)c2)C1=O [Compound 36] | ≥ 500 mg/kg |  |  | 163 s | 75%
22 | OCCN1CCC(=Cc2cccc(Oc3ccccc3)c2)C1 [Compound 71] | ≥ 500 mg/kg |  |  | 212 s | 75%
23 | O=C(O)CN1CCC(=Cc2cccc(Oc3ccccc3)c2)C1=O [Compound 29] | ≥ 500 mg/kg |  |  |  | 
24 | Nc1cc(C=C2CCNC2=O)ccc1Oc1ccccc1 [Compound 8] | ≥ 500 mg/kg | 118 s | 38% |  | 
25 | CCN1C(=O)C(=Cc2cccc(Oc3ccccc3)c2)CC1O (stereo not drawn) [Compound 54] | ≥ 500 mg/kg |  |  |  | 
26 | O=C1C(=Cc2cccc(Oc3ccccc3)c2)CCN1c1ccccc1 [Compound 46] | ≥ 500 mg/kg | 172 s | 75% |  | 
27 | O=C1NCCC1=Cc1ccccc1Oc1ccccc1 [Compound 3] | ≥ 500 mg/kg | 173 s | 75% |  | 
28 | COc1ccc(NC(=O)N2CCC(=Cc3cccc(Oc4ccccc4)c3)C2=O)cc1 [Compound 31] | ≥ 500 mg/kg | 100 s | 50% |  | 

Row | SMILES | LD50 at 336 h [1] | Step-through latency ([2]; 3 mg/kg oral) | responders at 3 mg/kg ([2]; 3 mg/kg oral) | Step-through latency ([2]; 1 mg/kg oral) | responders at 1 mg/kg ([2]; 1 mg/kg oral)
29 | O=C1C(=Cc2cccc(Oc3ccccc3)c2)CCN1Cc1ccccc1 [Compound 48] | ≥ 500 mg/kg | 117 s | 63% |  | 
30 | CCOC1CC(=Cc2cccc(Oc3ccccc3)c2)C(=O)N1CC (stereo not drawn) [Compound 57] | ≥ 500 mg/kg | 157 s | 50% |  | 
31 | CCN1CCC(=Cc2ccc(Oc3ccccc3)cc2)C1 [Compound 18] | ≥ 500 mg/kg |  |  |  | 
32 | CCOC1CC(=Cc2cccc(Oc3ccccc3)c2)C(=O)N1 (stereo not drawn) [Compound 56] | ≥ 500 mg/kg | 129 s | 63% |  | 
33 | CCN1CCC(=Cc2ccc(Oc3ccccc3)cc2)C1=O [Compound 14] | ≥ 500 mg/kg | 100 s | 25% |  | 
34 | CN(C)C(=O)CN1CCC(=Cc2cccc(Oc3ccccc3)c2)C1=O [Compound 35] | ≥ 500 mg/kg |  |  | 103 s | 50%
35 | O=C1NCCC1=Cc1cccc(Oc2ccc(Cl)cc2)c1 [Compound 6] | ≥ 500 mg/kg | 101 s | 31% |  | 
36 | COc1ccc(CN2CCC(=Cc3cccc(Oc4ccccc4)c3)C2=O)cc1 [Compound 49] | ≥ 500 mg/kg |  |  | 102 s | 50%
37 | CN(C)N1CCC(=Cc2cccc(Oc3ccccc3)c2)C1=O [Compound 38] | ≥ 500 mg/kg |  |  | 100 s | 50%
38 | CCCCN1CCC(=Cc2cccc(Oc3ccccc3)c2)C1=O [Compound 12] | ≥ 500 mg/kg | 152 s | 63% |  | 
39 | CCC1C(=Cc2cccc(Oc3ccccc3)c2)CCN1C(C)=O (stereo not drawn) [Compound 80] | ≥ 500 mg/kg |  |  | 100 s | 50%
40 | CCOC(=O)N1CCC(=Cc2cccc(Oc3ccccc3)c2)C1 [Compound 72] | ≥ 500 mg/kg |  |  |  | 
41 | CC1CC(=Cc2cccc(Oc3ccccc3)c2)C(=O)N1 (stereo not drawn) [Compound 52] | ≥ 500 mg/kg | 120 s | 50% |  | 
42 | CCN1CCC(=Cc2cccc(Oc3ccc(C)cc3)c2)C1 [Compound 19] | ≥ 500 mg/kg |  |  | 177 s | 75%
43 | O=C1NCCC1Cc1cccc(Oc2ccccc2)c1 (stereo not drawn) [Compound 81] | ≥ 500 mg/kg |  |  | 70 s | 25%
44 | O=C1C(=Cc2cccc(Oc3ccccc3)c2)CCN1C1CC1 [Compound 17] | ≥ 500 mg/kg |  |  |  | 
45 | CC(=O)N1CCC(=Cc2cccc(Oc3ccccc3)c2)C1 [Compound 74] | ≥ 500 mg/kg |  |  | 107 s | 50%
46 | O=C1C(=Cc2cccc(Oc3ccccc3)c2)CCN1c1ccc(F)cc1F [Compound 47] | ≥ 500 mg/kg |  |  |  | 
47 | COc1ccc(Oc2cccc(C=C3CCNC3=O)c2)cc1 [Compound 5] | ≥ 500 mg/kg | 134 s | 50% |  | 
48 | S=C1NCCC1=Cc1cccc(Oc2ccccc2)c1 [Compound 86] | ≥ 500 mg/kg | 70 s | 25% |  | 
49 | CC(=O)N1CCC(=Cc2cccc(Oc3ccccc3)c2)C1=O [Compound 41] | ≥ 500 mg/kg | 80 s | 25% |  | 
50 | O=C1C(=Cc2cccc(Oc3ccccc3)c2)CCN1CCCl [Compound 27] | ≥ 500 mg/kg |  |  |  | 
51 | CCN1CCC(=Cc2cccc(Oc3ccc(C)cc3)c2)C1=O [Compound 15] | ≥ 500 mg/kg |  |  |  | 
52 | NC(=O)CCN1CCC(=Cc2cccc(Oc3ccccc3)c2)C1=O [Compound 33] | ≥ 500 mg/kg |  |  |  | 
53 | C1=Cc2cccc(OCC3CNCCO3)c2C1 (stereo not drawn) [Indeloxazine hydrochloride, reference compound] |  | 131 s | 43% |  | 
54 | C=CN1CCC(=Cc2cccc(Oc3ccccc3)c2)C1=O [Compound 21] | ≥ 500 mg/kg |  |  |  | 
55 | O=C1C(=Cc2cccc(Oc3ccccc3)c2)CCN1CCO [Compound 25] | ≥ 500 mg/kg |  |  |  | 
